From publication PMC10073473, “Integrative omics-analysis of lipid metabolism regulation by peroxisome proliferator-activated receptor a and b agonists in male Atlantic cod” (Frontiers in Physiology, 2023)

Molecular target: T1, Pparb (gmPparb) (Gadus morhua, UniProt A0A8C4ZA29)
T1 construct: gene PPARD
T1 sequence (A0A8C4ZA29 216-511 limits assumed): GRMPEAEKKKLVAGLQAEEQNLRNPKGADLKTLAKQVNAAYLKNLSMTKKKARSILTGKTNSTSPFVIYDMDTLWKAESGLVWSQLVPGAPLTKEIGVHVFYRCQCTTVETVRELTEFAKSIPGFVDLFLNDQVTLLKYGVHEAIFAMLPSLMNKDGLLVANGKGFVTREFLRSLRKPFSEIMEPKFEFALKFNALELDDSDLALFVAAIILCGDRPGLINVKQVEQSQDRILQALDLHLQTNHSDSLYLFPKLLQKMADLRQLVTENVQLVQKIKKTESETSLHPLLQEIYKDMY
Test: GAL4-LBD luciferase reporter gene assay in COS-7 cells
Type: cell-based

Cc1cc(SCc2sc(-c3ccc(C(F)(F)F)cc3)nc2C)ccc1OCC(=O)O [GW501516, 2-[2-Methyl-4-[[[4-methyl-2-[4-(trifluoromethyl)phenyl]-5-thiazolyl]methyl]thio]phenoxy]-acetic acid]
EC50: 5.9 µM
